Reference: patent US20070179183A1 (priority 2003, published 2007)

Biological target: T1, α4β1 integrin (Homo sapiens, UniProt P05556+P13612)
T1 construct: endogenous in cells; host or cells: U-937 cells
Assay: U-937 Cell Adhesion to Human VCAM-1 (α4β1 Binding Assay)
Type: cell-based
Settings: read-out: IC50 values in the α4β1 assays
Method: Recombinant human soluble VCAM-1. (R&D Systems Ltd., UK) at 2 μg/ml in PBS was immobilized overnight onto microtiter plates. Unbound VCAM-1 was washed away and VCAM-1 coated plates were blocked with bovine serum albumin (BSA) 2.5% in PBS for 2 h at room temperature. U-937 cells were labelled with 5-carboxyfluorescein diacetate (5-CFDA) in order to detect bound cells to the wells. Test compounds were added to the wells followed by U-937 cells and the adhesion assay was performed for 1 h at 37° C. Following incubation, the wells were emptied and washed. Inhibition of binding was measured by the quantity of fluorescence bound to the plate for each of the various concentrations of test compound, as well as for controls containing no test compound, with a Cytofluor 2300 fluorescence measurement system.

T1 sequence (P13612 34-1032): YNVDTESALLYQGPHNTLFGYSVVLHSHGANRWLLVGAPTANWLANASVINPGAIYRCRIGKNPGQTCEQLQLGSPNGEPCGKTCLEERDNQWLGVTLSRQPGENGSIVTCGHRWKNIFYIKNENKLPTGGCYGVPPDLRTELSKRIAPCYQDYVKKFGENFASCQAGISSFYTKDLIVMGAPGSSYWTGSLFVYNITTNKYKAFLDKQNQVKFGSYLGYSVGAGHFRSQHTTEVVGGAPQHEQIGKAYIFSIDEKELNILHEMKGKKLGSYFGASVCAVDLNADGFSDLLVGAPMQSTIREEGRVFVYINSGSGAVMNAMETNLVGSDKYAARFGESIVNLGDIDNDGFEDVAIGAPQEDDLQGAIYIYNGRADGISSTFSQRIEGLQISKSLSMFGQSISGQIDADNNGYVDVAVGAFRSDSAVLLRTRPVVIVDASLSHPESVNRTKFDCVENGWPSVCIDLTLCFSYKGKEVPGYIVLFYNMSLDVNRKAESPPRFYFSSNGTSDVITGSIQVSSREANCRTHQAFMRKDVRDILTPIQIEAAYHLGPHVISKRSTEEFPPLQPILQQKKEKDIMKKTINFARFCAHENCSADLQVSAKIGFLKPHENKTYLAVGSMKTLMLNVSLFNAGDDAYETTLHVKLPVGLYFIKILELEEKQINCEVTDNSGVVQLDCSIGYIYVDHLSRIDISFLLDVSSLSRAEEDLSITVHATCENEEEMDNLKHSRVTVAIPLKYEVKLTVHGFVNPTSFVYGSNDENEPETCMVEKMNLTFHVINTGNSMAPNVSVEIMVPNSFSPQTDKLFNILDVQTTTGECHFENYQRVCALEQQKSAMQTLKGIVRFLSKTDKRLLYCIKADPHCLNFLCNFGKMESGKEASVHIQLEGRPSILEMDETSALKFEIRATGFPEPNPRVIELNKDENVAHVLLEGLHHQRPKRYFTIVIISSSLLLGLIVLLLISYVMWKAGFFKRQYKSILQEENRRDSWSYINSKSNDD
T1 sequence (P05556 21-798): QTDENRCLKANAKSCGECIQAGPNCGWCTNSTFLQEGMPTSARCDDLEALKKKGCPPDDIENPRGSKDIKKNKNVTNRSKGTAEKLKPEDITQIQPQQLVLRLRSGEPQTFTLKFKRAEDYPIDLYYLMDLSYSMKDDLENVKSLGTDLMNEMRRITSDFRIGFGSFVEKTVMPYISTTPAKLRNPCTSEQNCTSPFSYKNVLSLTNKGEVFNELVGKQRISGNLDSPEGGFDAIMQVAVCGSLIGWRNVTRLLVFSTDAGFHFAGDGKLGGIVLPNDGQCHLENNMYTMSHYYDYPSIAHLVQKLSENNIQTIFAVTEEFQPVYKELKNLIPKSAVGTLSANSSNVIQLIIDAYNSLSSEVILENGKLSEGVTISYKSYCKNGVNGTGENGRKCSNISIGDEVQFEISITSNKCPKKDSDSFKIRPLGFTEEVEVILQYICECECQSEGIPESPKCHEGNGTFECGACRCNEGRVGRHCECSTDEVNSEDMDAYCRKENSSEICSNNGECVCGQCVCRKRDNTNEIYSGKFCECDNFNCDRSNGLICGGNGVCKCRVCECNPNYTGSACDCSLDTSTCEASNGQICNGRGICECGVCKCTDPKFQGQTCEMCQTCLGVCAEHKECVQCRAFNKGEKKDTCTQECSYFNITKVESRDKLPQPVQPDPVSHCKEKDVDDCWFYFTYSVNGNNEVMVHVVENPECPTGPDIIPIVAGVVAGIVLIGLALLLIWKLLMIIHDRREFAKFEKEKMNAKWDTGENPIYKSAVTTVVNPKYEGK

Row | IC50 | Compound
1 | < 100 nM | O=C(Nc1ccc(C[C@H](NS(=O)(=O)NCc2ccccc2)C(=O)O)cc1)c1c(Cl)cccc1Cl [Example 3, (2S)-2-(N-benzylaminosulfonilamino)-3-[4-(2,6dichlorobenzoylamino)phenyl]propionic acid]
2 | < 100 nM | CC(C)N(C1CCCC1)S(=O)(=O)N[C@@H](Cc1ccc(NC(=O)c2c(Cl)cncc2Cl)cc1)C(=O)O [Example 71, (2S)-2-({[cyclopentyl(isopropyl)amino]sulfonyl}amino)-3-{4-[(3,5-dichloroisonicotinoyl)amino]phenyl}propionic acid]
3 | < 100 nM | CC(C)CN([C@H](C)c1ccccc1)S(=O)(=O)N[C@@H](Cc1ccc(NC(=O)c2c(Cl)cncc2Cl)cc1)C(=O)O [Example 77, (2S)-3-{4-[(3,5-dichloroisonicotinoyl)amino]phenyl}-2-[({isobutyl[(1R)-1-phenylethyl]amino}sulfonyl)amino]propionic acid]
4 | < 100 nM | O=C(Nc1ccc(C[C@H](NS(=O)(=O)Nc2ccccc2S(=O)(=O)c2ccccc2)C(=O)O)cc1)c1c(Cl)cncc1Cl [Example 81]
